Test results from patent US10544112B2, “Identification of ebsulfur analogues with broad-spectrum antifungal activity” (priority 2017, dated 2020).
In brackets after ≈: the same amount, converted by molar mass. Where two headings read alike, the source gives them in different places.

Columns and labels:
[1] = tested on: C. albicans ATCC 64124 (strain B); test: microbe, parasite or virus in culture; format: cell-based, Candida albicans; settings: strain B; compounds 1-4n and AmB; 48 h, RPMI 1640
Method in brief: (§1)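 CLSI M27-A3 microdilution, modified; RPMI 1640/0.165 M MOPS pH 7.0; final drug 12.5-0.02 μg/mL (2-fold series), inoculum 5×10^3 CFU/mL; 48 h, 35° C. Aspergillus: spores from 3-5 day PDA cultures at 25° C, tested likewise.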

[2] = tested on: C. albicans ATCC 90819(R) (strain D); test: microbe, parasite or virus in culture; format: cell-based, Candida albicans; settings: strain D; compounds 1-4n and AmB; 48 h, RPMI 1640
Method in brief: as §1

[3] = tested on: C. albicans ATCC MYA-1003(R) (strain G); test: microbe, parasite or virus in culture; format: cell-based, Candida albicans; settings: strain G; compounds 1-4n and AmB; 48 h, RPMI 1640
Method in brief: as §1

[4] = tested on: C. albicans ATCC MYA-1237(R) (strain F); test: microbe, parasite or virus in culture; format: cell-based, Candida albicans; settings: strain F; compounds 1-4n and AmB; 48 h, RPMI 1640
Method in brief: as §1

[5] = tested on: Aspergillus flavus ATCC MYA-3631 (strain K); test: Antifungal MIC determination, filamentous fungi spores; format: cell-based; settings: all compounds
Method in brief: (§2)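 A modified CLSI M27-A3 protocol is used, with final compound levels from 12.5 to 0.02 μg/mL in two-fold steps. Cells are incubated at 5×10^3 CFU/mL in buffered RPMI 1640 at 35° C for 48 h.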

[6] = tested on: Aspergillus nidulans ATCC 38163 (strain L); test: as above; format: cell-based; settings: strain L; spores
Method in brief: as §2

[7] = tested on: Aspergillus terreus ATCC MYA-3633 (strain M); test: as above; format: cell-based; settings: strain M; all compounds; spores
Method in brief: as §2

[8] = tested on: C. albicans ATCC 64124 (strain B); format: cell-based, Candida albicans
Protocol: The efficiency of the compounds to kill C. albicans ATCC 64124 (strain B) was monitored using a previously published protocol. The cell suspensions were prepared to achieve an inoculum of approximately 1-4×10^5 CFU/mL in RPMI 1640 medium at 35° C. […] After fungal cell addition, at 0, 3, 6, 9, 12, and 24 h, the tubes were vortexed and 100 μL aliquots were removed from each solution, spread onto PDA plates, and incubated at 35° C. Colony counts were determined after 24 h of incubation. The experiments were performed in duplicate (FIG. 2).
Time-kill assays with ebsulfur (2a) and analogue 3a (FIG. 2) were performed to determine the rate of fungicidal activity of the compounds if the invention.

SMILES	MIC-0 [1] [µg/mL]	MIC-0 [2] [µg/mL]	MIC-0 [3] [µg/mL]	MIC-0 [4] [µg/mL]	MIC-0 [5] [µg/mL]	MIC-0 [6]	MIC-0 [7] [µg/mL]	fungicidal or fungistatic effect [8]	reduction of fungal cells [8] [log]	fungicidal or fungistatic effect ([8]; 1× MIC)	fungicidal or fungistatic effect ([8]; 2× MIC)
CC(C)(C)n1sc2ccccc2c1=O [Compound 3g]	1.56 (≈ 7.53 µM)	1.56 (≈ 7.53 µM)	1.56 (≈ 7.53 µM)	1.56 (≈ 7.53 µM)	0.10 (≈ 0.482 µM)	0.10 µg/mL (≈ 0.482 µM)	0.10 (≈ 0.482 µM)	–	–	–	–
CCCCCCn1sc2ccccc2c1=O [Compound 3b]	1.56 (≈ 6.63 µM)	1.56 (≈ 6.63 µM)	0.78 (≈ 3.31 µM)	1.56 (≈ 6.63 µM)	≤0.02	≤≤0.02 μg/mL	≤0.02	–	–	–	–
CCCCCn1sc2ccccc2c1=O [Compound 3a]	0.39 (≈ 1.76 µM)	1.56 (≈ 7.05 µM)	0.78 (≈ 3.52 µM)	0.78 (≈ 3.52 µM)	≤0.02	≤0.02 µg/mL	≤0.02	fungistatic	4	fungistatic	fungistatic
